In patent US8637510B2, “Morpholinothiazoles as alpha 7 positive allosteric modulators” (Janssen Pharmaceutica NV, priority 2009, dated 2014):
Where a name gives a salt, the structure may show the parent alone.

Target: T1, human alpha 7-wt nAChR (Homo sapiens, UniProt P36544)
T1 construct: expressed in transfected cells
Assay: Ca2+ flux imaging (FDSS) (Protocol B)
Assay type: cell-based
Settings: for Emax: efficacy of 100 μM choline defined as 100% in the absence of a PAM, read-out: a7-PAM-G_[33]_Eff_Curve_FI % Efficacy; for EC50: potentiation of 100 μM choline, compounds 0.01 μM to 30 μM, read-out: a7-PAM-G_[33]_pEC50 pEC50 (converted)
Protocol: Ca^2+ Flux Imaging (FDSS) (Protocol B)
• Hanks buffered saline solution (HBSS, Invitrogen, Belgium), supplemented with 10 mM HEPES (Invitrogen, Belgium), CaCl2 to a final concentration of 5 mM, 0.1% Bovine serum albumin (Sigma-Aldrich NV, Belgium). b) Calcium-Sensitive Dye—Fluo-4AM • Fluo-4AM (Molecular Probes, USA) was dissolved in DMSO containing 10% Pluronic acid (Molecular Probes, USA) to give a stock solution which was diluted in assay buffer supplemented with 5 mM probenicid (Sigma, Aldrich NV, Belgium) to give a final concentration of 2 μM. c) 384-Well Plates • Black-sided, transparent bottomed 384 well plates coated with poly-D-lysine, PDL pre-coated (Corning, Incorporated, USA) d) Calcium Flux Measurement • A Functional drug screening system (FDSS, Hamamatsu) was used to measure intracellular free-calcium flux signals. Method
Monolayers of human alpha 7-wt nAChR-expressing cells were grown in black-sided, transparent bottomed 384 well plates coated with PDL for 24 hours prior to loading with a fluorescent calcium indicator, fluo-4AM for up to 120 minutes.
PAM activity was detected in real time by applying the compounds to be tested to the loaded cells along with an alpha 7 nicotinic receptor agonist during constant monitoring of cellular fluorescence in a FDSS. Compounds giving peak fluorescent responses greater than the response due to agonist alone, were considered to be alpha 7 nAChR PAMs. The alpha 7 nicotinic receptor agonist was choline, applied at a sub-maximal concentration of 100 μM. In a further setting of the present invention the compounds were applied prior to the alpha 7 nicotinic receptor agonist, in a particular 10 minutes prior to the agonist.
A control response to choline was calculated on each plate from the difference in peak in fluorescence in wells receiving either choline or assay buffer alone. Compounds of the present invention were tested at a concentration range from 0.01 μM to 30 μM. Compounds were considered to have an interesting activity when they potentiated the choline signal at least with 200% when tested at a concentration of 30 μM (the efficacy of 100 μM choline was defined as 100% in the absence of a PAM). An EC50 (or pEC50) was determined as a concentration relating to half the maximal effect, when a clear sigmoidal curve with top plateau was obtained.

T1 sequence (P36544 23-502): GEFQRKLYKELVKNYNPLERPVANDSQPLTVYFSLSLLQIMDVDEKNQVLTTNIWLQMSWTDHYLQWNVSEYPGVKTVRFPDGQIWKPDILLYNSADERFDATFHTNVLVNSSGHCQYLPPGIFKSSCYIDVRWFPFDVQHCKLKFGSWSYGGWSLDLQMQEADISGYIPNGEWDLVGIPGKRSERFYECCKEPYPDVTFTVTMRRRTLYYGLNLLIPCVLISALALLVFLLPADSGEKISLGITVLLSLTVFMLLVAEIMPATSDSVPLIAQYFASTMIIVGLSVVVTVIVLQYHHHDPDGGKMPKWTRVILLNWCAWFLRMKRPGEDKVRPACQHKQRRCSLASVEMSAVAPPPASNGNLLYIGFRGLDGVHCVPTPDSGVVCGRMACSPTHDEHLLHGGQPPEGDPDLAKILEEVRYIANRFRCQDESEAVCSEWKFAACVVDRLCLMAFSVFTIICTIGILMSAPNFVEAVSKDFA

| Structure (SMILES) | Emax | EC50 |
| --- | --- | --- |
| Cc1cc(-c2sc(N3C[C@@H](C)O[C@@H](C)C3)nc2CNC(=O)c2ccoc2)cc(C)n1 [Compound 141, N-[[2-[(2R,6S)-2,6-dimethyl-4-morpholinyl]-5-(2,6-dimethyl-4-pyridinyl)-4-thiazolyl]methyl]-3-furancarboxamide] | 764% | 692 nM |
| Cc1cc(-c2sc(N3C[C@@H](C)O[C@@H](C)C3)nc2CNC(=O)c2ccn(C)n2)cc(C)n1 [Compound 142, N-[[2-[(2R,6S)-2,6-dimethyl-4-morpholinyl]-5-(2,6-dimethyl-4-pyridinyl)-4-thiazolyl]methyl]-1-methyl-1H-pyrazole-3-carboxamide] | 669% |  |
| Cc1cc(-c2sc(N3C[C@@H](C)O[C@@H](C)C3)nc2CNC(=O)c2cc(C(C)(C)C)on2)cc(C)n1 [Compound 143, 5-(1,1-dimethylethyl)-N-[[2-[(2R,6S)-2,6-dimethyl-4-morpholinyl]-5-(2,6-dimethyl-4-pyridinyl)-4-thiazolyl]methyl]-3-isoxazolecarboxamide] |  | 891 nM |
| Cc1cc(-c2sc(N3C[C@@H](C)O[C@@H](C)C3)nc2CNC(=O)CCCC(F)(F)F)cc(C)n1 [Compound 145, N-[[2-[(2R,6S)-2,6-dimethyl-4-morpholinyl]-5-(2,6-dimethyl-4-pyridinyl)-4-thiazolyl]methyl]-5,5,5-trifluoro-pentanamide] |  | 148 nM |
| Cc1cc(-c2sc(N3C[C@@H](C)O[C@@H](C)C3)nc2CNC(=O)c2ccoc2C)cc(C)n1 [Compound 151, N-[[2-[(2R,6S)-2,6-dimethyl-4-morpholinyl]-5-(2,6-dimethyl-4-pyridinyl)-4-thiazolyl]methyl]-2-methyl-3-furancarboxamide] |  | 871 nM |
| Cc1cc(-c2sc(N3C[C@@H](C)O[C@@H](C)C3)nc2CNC(=O)c2ocnc2C)cc(C)n1 [Compound 152, N-[[2-[(2R,6S)-2,6-dimethyl-4-morpholinyl]-5-(2,6-dimethyl-4-pyridinyl)-4-thiazolyl]methyl]-4-methyl-5-oxazolecarboxamide] |  | 6920 nM |
| Cc1cc(-c2sc(N3C[C@@H](C)O[C@@H](C)C3)nc2CNC(=O)c2scnc2C)cc(C)n1 [Compound 153, N-[[2-[(2R,6S)-2,6-dimethyl-4-morpholinyl]-5-(2,6-dimethyl-4-pyridinyl)-4-thiazolyl]methyl]-4-methyl-5-thiazolecarboxamide] |  | 2750 nM |
| Cc1cc(-c2sc(N3C[C@@H](C)O[C@@H](C)C3)nc2CNC(=O)c2snnc2C)cc(C)n1 [Compound 155, N-[[2-[(2R,6S)-2,6-dimethyl-4-morpholinyl]-5-(2,6-dimethyl-4-pyridinyl)-4-thiazolyl]methyl]-4-methyl-1,2,3-thiadiazole-5-carboxamide] |  | 75.9 nM |
| COc1nc(C)c(C(=O)NCc2nc(N3C[C@@H](C)O[C@@H](C)C3)sc2-c2cc(C)nc(C)c2)s1 [Compound 158, N-[[2-[(2R,6S)-2,6-dimethyl-4-morpholinyl]-5-(2,6-dimethyl-4-pyridinyl)-4-thiazolyl]methyl]-2-methoxy-4-methyl-5-thiazolecarboxamide] | 951% | 1580 nM |
| Cc1cc(-c2sc(N3C[C@@H](C)O[C@@H](C)C3)nc2CNC(=O)c2cc(C)sc2C)cc(C)n1 [Compound 162, N-[[2-[(2R,6S)-2,6-dimethyl-4-morpholinyl]-5-(2,6-dimethyl-4-pyridinyl)-4-thiazolyl]methyl]-2,5-dimethyl-3-thiophenecarboxamide] | 842% | 813 nM |
| Cc1cc(-c2sc(N3C[C@@H](C)O[C@@H](C)C3)nc2CNC(=O)c2ccc(C(F)(F)F)nc2C)cc(C)n1 [Compound 165, N-[[2-[(2R,6S)-2,6-dimethyl-4-morpholinyl]-5-(2,6-dimethyl-4-pyridinyl)-4-thiazolyl]methyl]-2-methyl-6-(trifluoromethyl)-3-pyridinecarboxamide] |  | 49 nM |
| Cc1cc(CC(=O)NCc2nc(N3C[C@@H](C)O[C@@H](C)C3)sc2-c2cc(C)nc(C)c2)on1 [Compound 167, N-[[2-[(2R,6S)-2,6-dimethyl-4-morpholinyl]-5-(2,6-dimethyl-4-pyridinyl)-4-thiazolyl]methyl]-3-methyl-5-isoxazoleacetamide] |  | 1230 nM |
| Cc1cc(-c2sc(N3C[C@@H](C)O[C@@H](C)C3)nc2CNC(=O)c2cn(C)nc2C)cc(C)n1 [Compound 169, N-[[2-[(2R,6S)-2,6-dimethyl-4-morpholinyl]-5-(2,6-dimethyl-4-pyridinyl)-4-thiazolyl]methyl]-1,3-dimethyl-1H-pyrazole-4-carboxamide] | 671% |  |
| Cc1cc(-c2sc(N3C[C@@H](C)O[C@@H](C)C3)nc2CNC(=O)CC#N)cc(C)n1 [Compound 170, 2-cyano-N-[[2-[(2R,6S)-2,6-dimethyl-4-morpholinyl]-5-(2,6-dimethyl-4-pyridinyl)-4-thiazolyl]methyl]-acetamide] | 499% | 3090 nM |
| Cc1cc(-c2sc(N3C[C@@H](C)O[C@@H](C)C3)nc2CNC(=O)c2oc(C)cc2C)cc(C)n1 [Compound 173, N-[[2-[(2R,6S)-2,6-dimethyl-4-morpholinyl]-5-(2,6-dimethyl-4-pyridinyl)-4-thiazolyl]methyl]-3,5-dimethyl-2-furancarboxamide] | 425% | 776 nM |
| Cc1cc(-c2sc(N3C[C@@H](C)O[C@@H](C)C3)nc2CNC(=O)C2(O)CC2)cc(C)n1 [Compound 176, N-[[2-[(2R,6S)-2,6-dimethyl-4-morpholinyl]-5-(2,6-dimethyl-4-pyridinyl)-4-thiazolyl]methyl]-1-hydroxy-cyclopropanecarboxamide] | 149% |  |
| Cc1cc(-c2sc(N3C[C@@H](C)O[C@@H](C)C3)nc2CNC(=O)C(F)(F)F)cc(C)n1 [Compound 177, N-[[2-[(2R,6S)-2,6-dimethyl-4-morpholinyl]-5-(2,6-dimethyl-4-pyridinyl)-4-thiazolyl]methyl]-2,2,2-trifluoro-acetamide] | 26% |  |
| Cc1cc(-c2sc(N3CCOC(C)(C)C3)nc2CNC(=O)c2cc(C)on2)cc(C)n1 [Compound 181, N-[[2-(2,2-dimethyl-4-morpholinyl)-5-(2,6-dimethyl-4-pyridinyl)-4-thiazolyl]methyl]-5-methyl-3-isoxazolecarboxamide] | 991% | 1910 nM |
| Cc1cc(-c2sc(N3CCOC(C)(C)C3)nc2CNC(=O)c2conc2C)cc(C)n1 [Compound 182, N-[[2-(2,2-dimethyl-4-morpholinyl)-5-(2,6-dimethyl-4-pyridinyl)-4-thiazolyl]methyl]-3-methyl-4-isoxazolecarboxamide•HCl] | 702% | 1450 nM |
| Cc1cc(-c2sc(N3CCOC(C)(C)C3)nc2CNC(=O)C(C)C)cc(C)n1 [Compound 183, N-[[2-(2,2-dimethyl-4-morpholinyl)-5-(2,6-dimethyl-4-pyridinyl)-4-thiazolyl]methyl]-2-methyl-propanamide] |  | 2750 nM |
| Cc1cc(-c2sc(N3CCOC[C@@H]3C)nc2CNC(=O)c2conc2C)cc(C)n1 [Compound 185, N-[[5-(2,6-dimethyl-4-pyridinyl)-2-[(3S)-3-methyl-4-morpholinyl]-4-thiazolyl]methyl]-3-methyl-4-isoxazolecarboxamide] | 835% | 4790 nM |
| Cc1cc(-c2sc(N3CCOC[C@@H]3C)nc2CNC(=O)c2cc(C)on2)cc(C)n1 [Compound 186, N-[[5-(2,6-dimethyl-4-pyridinyl)-2-[(3S)-3-methyl-4-morpholinyl]-4-thiazolyl]methyl]-5-methyl-3-isoxazolecarboxamide] | 945% | 3800 nM |
| Cc1cc(-c2sc(N3CCOC[C@@H]3C)nc2CNC(=O)C(C)C)cc(C)n1 [Compound 188, N-[[5-(2,6-dimethyl-4-pyridinyl)-2-[(3S)-3-methyl-4-morpholinyl]-4-thiazolyl]methyl]-2-methyl-propanamide] | 685% | 5010 nM |
| Cc1cc(-c2sc(N3C[C@@H](C)O[C@@H](C(F)(F)F)C3)nc2CNC(=O)CC2CC2)cc(C)n1 [Compound 203, N-[[5-(2,6-dimethyl-4-pyridinyl)-2-[(2R,6R)-2-methyl-6-(trifluoromethyl)-4-morpholinyl]-4-thiazolyl]methyl]-cyclopropaneacetamide] |  | 7.24 nM |
| Cc1cc(-c2sc(N3C[C@@H](C(F)(F)F)O[C@@H](C)C3)nc2CNC(=O)CC2CC2)cc(C)n1 [Compound 204, N-[[5-(2,6-dimethyl-4-pyridinyl)-2-[(2S,6S)-2-methyl-6-(trifluoromethyl)-4-morpholinyl]-4-thiazolyl]methyl]-cyclopropaneacetamide] | 392% | 31.6 nM |
